Results taken from patent EP0671915B1, “USE OF IDAZOXAN AND DERIVATIVES THEREOF IN PREPARING A DRUG FOR TREATING PARKINSON'S DISEASE AND ITS DEVELOPMENT” (PIERRE FABRE MEDICAMENT, priority 1992, dated 1994).

Experiments:
[1] = tested on: neurones dopaminergiques; assay: Mouse model of DSP4 + MPTP induced degeneration: cortical noradrenaline and striatal dopamine levels; assay type: in vivo, souris; set-up: key to Taux de NA cortical / Taux de DA striatale: * à *** niveau de dégénérescence estimé par la diminution des taux de NA cortical et DA striatale; * à *** niveau de dégénérescence estimé par la diminution des taux de NA cortical et DA striatale; * à *** niveau de dégénérescence estimé par la diminution des taux de NA cortical et DA striatale; conditions: for Taux de DA striatale / Taux de NA cortical: mice given DSP4 and MPTP, then treated, measured after end of treatment, symbol = level of degeneration
[2] = depression; 5 to 40 mg, 3 times a day for 4 weeks; versus placebo; cited from earlier work
[3] = tested on: voie nigro-striée; assay: Squirrel monkey MPTP model with noradrenergic lesion (protocol analogous to Mavridis et al.); assay type: in vivo, singe écureuil; conditions: behavioural, biochemical and histological results
Text: L'emploi de l'idazoxan a également été étudié chez le singe écureuil selon un protocole analogue à celui de M. MAVRIDIS et al. Neuroscience 41,507 (1991).
Les résultats comportementaux, biochimiques et histologiques montrent qu'une lésion du système noradrénergique induit une dégénération de la voie nigrostriée après administration du MPTP.

[4] = Clinical study in idiopathic Parkinson's disease patients versus 1-DOPA: motor symptoms; assay type: in vivo; set-up: key: 0 : pas de changements par rapport à avant le traitement; + a +++ amélioration; + a +++ amélioration; + a +++ amélioration; conditions: oral, 4 weeks; for symptômes précoces, persistance de l'amélioration après traitement / symptômes précoces, pendant traitement: eye blinking; for symptômes précoces, persistance de l'amélioration après traitement / symptômes tardifs, persistance de l'amélioration après traitement: after end of treatment; for symptômes précoces, pendant traitement / symptômes tardifs, pendant traitement: during treatment; for symptômes tardifs, persistance de l'amélioration après traitement / symptômes tardifs, pendant traitement: hypokinesia
Experimental: 20 patients ont été sélectionnés répondant aux critères idiopathiques de la maladie de Parkinson et une étude a été menée contre la 1-DOPA.
Les administrations sont effectuées pendant 4 semaines par voie orale dans une gamme de dose de 500 mg à 4 g par jour pour la 1-DOPA, et pour l'Idazoxan d'une dose initiale de 3 fois 5 mg par jour croissant à un maximum de 3 fois 40 mg par jour, le clinicien déterminant la posologie exacte pour chaque patient.
L'efficacité des traitements a été mesurée sur les symptômes moteurs, du type tremblement d'action, d'intention, de repos, sur l'hypokinésie (symptômes tardifs) et le clignement des paupières (symptôme précoce de la maladie). Les observations ont été faites pendant le traitement et après arrêt du traitement pour mettre en évidence la persistance éventuelle de l'amélioration des symptômes.

| Structure (SMILES) | Taux de DA striatale [1] | Taux de NA cortical [1] | échelle de Hamilton [2] | effet de la lésion de la voie nigro-striée [3] | dégénérescence de neurones dopaminergiques provoquée par le DSP4 et la MPTP ([1]; shown by slower fall of striatal dopamine compared with 1-DOPA (Groupe F) or apomorphine (Groupe G)) | symptômes précoces, persistance de l'amélioration après traitement [4] | symptômes précoces, pendant traitement [4] | symptômes tardifs, persistance de l'amélioration après traitement [4] | symptômes tardifs, pendant traitement [4] |
| --- | --- | --- | --- | --- | --- | --- | --- | --- | --- |
| CN1CCc2cccc3c2[C@H]1Cc1ccc(O)c(O)c1-3 [G, apomorphine, reference compound] | *** | * |  |  |  |  |  |  |  |
| c1ccc2c(c1)OCC(C1=NCCN1)O2 (stereo not drawn) [idazoxan, 2-(2-(1,4-benzodioxanyl))-2-imidazoline] | * | * | amélioration significative | diminue l'effet de la lésion de la voie nigro-striée et améliore l'évolution | ralentissement de la dégénérescence de neurones dopaminergiques | ++ | ++ | + | + |
| N[C@@H](Cc1ccc(O)c(O)c1)C(=O)O [1-DOPA, reference compound] |  |  |  |  |  | 0 | +++ | 0 | +++ |
